Reference: PMC9603946, “On the Sensitivity of the Virion Envelope to Lipid Peroxidation” (Microbiology Spectrum, 2022)
“And” between values parts separate entries of the source, which are not always exact repeats. Identical values can stand only once. Like-named read-outs stand apart in the source and are kept apart here. Marks after values point to notes of the source that are not given here.

What was measured:
HSV-1 [1] = assay type: cell-based, HSV-1 KOS; conditions: for drop of viral titers: after 2 h of incubation in atmospheric O2 at 37°C with the substance; for protective effect on infectivity in atmospheric O2: substance alone, without BSA carrier
Experimental: To test other oxidative conditions, an HSV-1 suspension was incubated in atmospheric oxygen at 37°C in DMEM without serum. The virions were incubated with the previously used antioxidants (vitamin E-BSA and vitamin C), vitamin E without the carrier, the BSA carrier alone, vitamin C-BSA, cholesterol (another compound with a conjugated ring and alkyl chains but with limited antioxidant activity), or cholesterol-BSA. A plaquing efficiency assay was then performed with the treated virions.
A time course plaquing efficiency assay was performed with HSV-1 incubated under atmospheric oxidative conditions. Virions (3 × 10^5 PFU) were incubated with vitamin E, vitamin E-BSA, cholesterol, cholesterol-BSA, vitamin C (10 μM final concentration), or the carrier BSA (0.5% final concentration) for 3 h at 37°C in a water bath with atmospheric air (atmospheric O2). Aliquots from each condition were taken every hour and diluted 1:200 to perform plaquing efficiency assays as previously described on the Vero cells.

[2] = many months of exposure to light at room temperature; no reference given; cited from earlier work
enveloped viruses = conditions: cited from earlier work
HSV-1 virions [3] = assay: HSV-1 virion lipid peroxidation probed with C11-Bodipy; parameters: species or system HSV-1 KOS; conditions: C11-Bodipy (Fig. 8)
Experimental: (§1) The effects of peroxidators have been commonly evaluated against purified lipids and liposomes as a proxy, but they have not been evaluated against virions ([50], [53][–][55]). We instead directly evaluated the extent of virion lipid peroxidation.
To evaluate virion lipoperoxidation with C11-Bodipy, 50 μL DMEM containing 5 × 10^6 PFU of HSV-1 was added into each well of 96-well plates. Virions were then preloaded with 0.1 mol % of C11-Bodipy for 30 min at 37°C. […] Fluorescence was evaluated in a TECAN Infinite M200 Pro at 550 nm excitation and 580 to 630 nm emission with the reading peak at 600 nm.
(§2) To evaluate the effects of a lipid soluble antioxidant, cells or virions were preloaded with vitamin E-BSA for 3 h at 37°C. Vitamin E-BSA containing medium was removed, and the cells were washed twice with DMEM. Liperfluo (20 or 10 μM for cells or virions, respectively) or C11-Bodipy (1 μM for cells or 0.1 mol% for virions) were preloaded into the cells or virions for 30 min at 37°C.
(§3) To evaluate the effects of water soluble antioxidants, liperfluo (20 μM for cells or 10 μM for virions) or C11-Bodipy (1 μM for cells or 0.1 mol% for virions) were preloaded into the cells or virions for 30 min at 37°C. […] Fluorescence was evaluated in a TECAN Infinite M200 Pro at 515 nm excitation and 545 nm emission for liperfluo or at 550 nm excitation and 580 to 630 nm emission for C11-Bodipy.

HSV-1 [4] = assay: HSV-1 virion infectivity (plaquing efficiency) on Vero cells after virion pretreatment; conditions: for EC50: Human alphaherpesvirus 1, Vero
Experimental: (§4) The inocula were removed, and the cells were washed and then incubated at 37°C in 5% CO2 until plaques were visible and well-resolved (about 2 days), at which time they were fixed and stained with crystal violet.
(§5) HSV-1 suspensions of 20,000 plaque PFU in 250 μL DMEM were mixed 1:1 with 2-fold serial dilutions of the general peroxidators and were incubated in a water bath for 2 h at 37°C. Next, treated virions were diluted 1:100 before being adsorbed onto cells for 1 h at 37°C. The inocula were removed, and the cells were washed twice with cold DMEM. Infected cells were overlaid with DMEM supplemented with 2% (Vero) or 1% (HFF) methylcellulose and 5% FBS and were incubated at 37°C until plaques were visible and well-resolved, typically in about 2 days. Cell monolayers were fixed and stained with 1% crystal violet in 17% methanol for 18 h at RT. The cells were washed, and the plaques were counted and normalized to those produced by the vehicle treated virions.
(§6) To test the effects of lipid soluble antioxidants on virions, 10 μM vitamin E loaded onto 1% carrier BSA in the dark for 4.5 h at RT was incubated with 10^6 HSV-1 virions for 3 h at 37°C. […] The treated virions were diluted 1:100 before infecting cells. […] The mix was incubated for 2 h at 37°C, diluted 1:100, and used to infect cells. The infectivity of an aliquot of treated virions was tested via a plaque assay.

Vero cells [5] = assay: Vero cell lipid peroxidation probed with liperfluo; assay type: cell-based, African green monkey; conditions: for EC50: Chlorocebus sabaeus, Vero, Liperfluo probe, read-out: CP50 (the source's name)
Experimental: as §1
To evaluate cell lipid peroxidation using liperfluo, 7.5 × 10^3 Vero cells were seeded into each well of 96-well plates and incubated for 18 h at 37°C in 5% CO2. […] Two hours later, the cells were washed twice, and the fluorescence was evaluated in a TECAN Infinite M200 Pro at 515 nm excitation and 545 nm emission.
as §2, §3

HSV-1 [6] = assay: HSV-1 virion infectivity (plaquing efficiency) on HFF cells after virion pretreatment; conditions: for EC50: Human alphaherpesvirus 1, HFF
Experimental: as §4, §5, §6

Vero cells [7] = assay: Vero cell lipid peroxidation probed with C11-Bodipy; assay type: cell-based, African green monkey; conditions: C11-Bodipy (Fig. 8)
Experimental: as §1
To evaluate Vero cell lipoperoxidation with C11-Bodipy, 7.5 × 10^3 cells were seeded into each well of 96-well plates and incubated for 18 h at 37°C in 5% CO2 before preloading them with 1 μM C11-Bodipy for 30 min at 37°C. […] Two hours later, the cells were washed twice and lysed with DMSO:isopropanol. Fluorescence was evaluated in a TECAN Infinite M200 Pro at 550 nm excitation and 580 to 630 nm emission with the reading peak at 600 nm.
as §2, §3

HSV-1 virions [8] = assay: microbe, parasite or virus in culture; parameters: species or system HSV-1 KOS; conditions: virions, at higher AAPH concentrations
Experimental: as §1
To evaluate virion peroxidation using liperfluo, 50 μL DMEM that contained 5 × 10^6 PFU of HSV-1 was added to 96-well plates. Virions were then preloaded with 10 μM liperfluo for 20 min at 37°C. […] Fluorescence was evaluated in a TECAN Infinite M200 Pro at 515 nm excitation and 545 nm emission. Medium containing no virus was used as blank.
as §2, §3

[9] = HFF cell viability after 2 h exposure to lipoperoxidators (CellTiter-Glo); conditions: human, HFF cells
Experimental: (§7) The cells were washed twice with warm DMEM before a 100 μL lipoperoxidator solution was transferred with a multichannel pipette from the plate containing the drug dilutions in technical triplicates. The cells were incubated with peroxidators for 2 h at 37°C. Then, the medium was removed, and the cells were washed twice with DMEM at 37°C. The plates were cooled down to RT, and the medium was removed. Then, 50 μL phenol red free DMEM and 50 μL CellTiter-glo Luminiscent Cell Viability Assay (Promega, G7571/2/3) were added and mixed in an orbital shaker for 2 min. Afterwards, 80 μL of the mix was transferred onto white 96-well plates and incubated for 10 min at RT for signal stabilization. The luminescence was read in the Glomax Multidetection System (Promega) with an integration time of 0.5 s.
(§8) The means of the technical triplicates were normalized to the means of the vehicle controls, analyzed via nonlinear regression dose responses, and graphed using GraphPad Prism 9.0. Three or four independent biological replicates were performed for each treatment (n = 3 or 4).
(§9) To evaluate the effects of lipid soluble antioxidants, 10 μM vitamin E was loaded onto carrier 1% BSA in the dark for 4.5 h at RT. The cells were washed twice with DMEM at 37°C and preloaded with 100 μL of 10 μM vitamin E in BSA carrier for 3 h at 37°C. The cells were washed twice again before the addition of any lipoperoxidators. Peroxidators were then added to the cells at working concentrations and incubated for 2 h at 37°C. The peroxidation solution was then removed, and the cells were washed twice with DMEM before analyzing viability. To evaluate the effects of a water soluble antioxidant, the cells were treated with 10 μM vitamin C (final concentration) simultaneously with the lipoperoxidators.

HFF cells = assay: as above; conditions: HFF
Experimental: as §7, §8, §9

[10] = Vero cell viability after 2 h exposure to lipoperoxidators (CellTiter-Glo); conditions: African green monkey, Vero cells, CC50, Vero
Experimental: as §7, §8, §9

Vero cells [11] = assay: as above; conditions: Vero
Experimental: as §7, §8, §9

Question: With O=C1O[C@H]([C@@H](O)CO)C(O)=C1O [vitamin C, L-ascorbic acid] as the molecule, how does the “drop of viral titers” value (HSV-1 [1]) read?
Answer: The value was “about 30%”.

Question: Which “inactivation by light exposure” value [2] does the source give for O=c1[nH]c(=O)n([C@@H]2O[C@H](CO)[C@@H](O)[C@@H]2O)cc1C#Cc1ccc2c3cccc4cccc(c5cccc1c52)c43 [aUY11, 5-(Perylen-3-yl) ethynyl-arabino-uridine] here?
Answer: The value was “not inactivated”.

Question: Which “fold over antiviral concentrations at which not cytotoxic” value (enveloped viruses) does the source give for C=CCN1C(=O)/C(=C/c2ccc(-c3ccccc3)o2)SC1=S [LJ001] here?
Answer: Its value is ≥ 100 fold.

Question: Which “protective effect on infectivity in atmospheric O2” value (HSV-1 [1]) does the source give for CC(C)CCC[C@@H](C)[C@H]1CC[C@H]2[C@@H]3CC=C4C[C@@H](O)CC[C@]4(C)[C@H]3CC[C@]12C [cholesterol] here?
Answer: The value was “no protective effects”.

Question: Which “lowest concentration affecting virion peroxidation” value (HSV-1 virions [3]) does the source give for CC(C)(N=NC(C)(C)C(=N)N)C(=N)N.Cl.Cl [AAPH, 2,2′-azobis(2-methylpropionamidine) dihydrochloride] here?
Answer: Its value is 200 mM.

Question: And the EC50 (HSV-1 [4]; 2 h, Vero, no antioxidant, virions treated 2 h at 37°C)?
Answer: The EC50 was 20.8 mM.

Question: And the EC50 (HSV-1 [4]; Vero, virions preloaded with vitamin E (10 μM, BSA carrier))?
Answer: The EC50 was 31 mM.

Question: What about the “concentration of maximal inhibition of virion infectivity” value (HSV-1 [4]; Vero) of the same molecule?
Answer: Its value is 100 mM.

Question: What about the “concentration giving a loss of infectivity of about 30%” value (HSV-1 [4]; Vero, 2 h at 37°C) of the same molecule?
Answer: Its value is 25 mM.

Question: What about the “SI, CC50/EC50” value (HSV-1 [4]; Vero, vitamin C) of the same molecule?
Answer: The value was 0.9.

Question: And the “minimum inhibitory concentration (MIC) that decreased infectivity in the presence of vitamin C” value (HSV-1 [4]; Vero, vitamin C)?
Answer: The value was 50 mM.

Question: And the “SI, CC50/EC50” value (HSV-1 [4]; Vero, vitamin E)?
Answer: The value was 4.4.

Question: What about the “lowest concentration that decreased virion infectivity in the presence of BSA” value (HSV-1 [4]; Vero, with BSA) of the same molecule?
Answer: The value was 50 mM.

Question: And the “lowest effective concentration on infectivity in the presence of the antioxidants” value (HSV-1 [4]; Vero, with antioxidants)?
Answer: Its value is 25 mM.

Question: What about the EC50 (Vero cells [5]; no antioxidant) of the same molecule?
Answer: The EC50 was 89.2 mM.

Question: What about the EC50 (Vero cells [5]; vitamin C) of the same molecule?
Answer: The EC50 was 90.7 mM.

Question: What about the EC50 (Vero cells [5]; vitamin E) of the same molecule?
Answer: Its EC50 is 90.7 mM.

Question: What about the “level of lipoperoxidation detected by liperfluo” value (Vero cells [5]; cells, at higher AAPH concentrations) of the same molecule?
Answer: Its value is < 2 AU.

Question: And the “concentration giving a loss of infectivity of about 30%” value (HSV-1 [6]; 2 h at 37°C)?
Answer: The value was 12.5 mM.

Question: What about the EC50 (HSV-1 [6]; 2 h, no antioxidant, virions treated 2 h at 37°C) of the same molecule?
Answer: The EC50 was 24.7 mM.

Question: And the EC50 (HSV-1 [6]; virions preloaded with vitamin E (10 μM, BSA carrier))?
Answer: Its EC50 is 31.4 mM.

Question: And the “SI, CC50/EC50” value (HSV-1 [6]; vitamin C)?
Answer: The value was 1.7.

Question: And the “minimum inhibitory concentration (MIC) that decreased infectivity in the presence of vitamin C” value (HSV-1 [6]; vitamin C)?
Answer: The value was 100 mM.

Question: And the “SI, CC50/EC50” value (HSV-1 [6]; vitamin E)?
Answer: Its value is 3.1.

Question: And the “lowest concentration affecting cell lipid peroxidation” value (Vero cells [7])?
Answer: Its value is 50 to 100 mM.

Question: And the “level of lipoperoxidation detected by liperfluo” value (HSV-1 virions [8])?
Answer: The value was < 2 AU.

Question: What about the CC50 at 2 h [9] of the same molecule?
Answer: The CC50 at 2 h was 96.7 mM.

Question: And the “PI, CC50 (antioxidant)/CC50” value (HFF cells; vitamin C)?
Answer: Its value is 1.1.

Question: And the “PI, CC50 (antioxidant)/CC50” value (HFF cells; vitamin E)?
Answer: The value was 0.5 ^*.

Question: What about the CC50 at 2 h ([10]; no antioxidant, 2 h at 37°C) of the same molecule?
Answer: The CC50 at 2 h was 69 mM.

Question: And the CC50 at 2 h ([10]; with vitamin C (10 μM))?
Answer: The CC50 at 2 h was 88.4 mM.

Question: What about the “concentration of maximal inhibition of cell viability” value (Vero cells [11]) of the same molecule?
Answer: Its value is 400000 µM.

Question: And the “lowest concentration that reduced cell viability” value (Vero cells [11])?
Answer: The value was 12.5 mM and 25 mM.

Question: What about the “PI, CC50 (antioxidant)/CC50” value (Vero cells [11]; vitamin C) of the same molecule?
Answer: Its value is 1.3.

Question: And the “PI, CC50 (antioxidant)/CC50” value (Vero cells [11]; vitamin E)?
Answer: Its value is 2.0 ^*.

Question: Which results are given for Cc1c(C)c2c(c(C)c1O)CC[C@@](C)(CCC[C@H](C)CCC[C@H](C)CCCC(C)C)O2 [vitamin E, alpha tocopherol]?
Answer: protection of HSV-1 infectivity against the water soluble peroxidator (HSV-1 [4]; Vero and HFF (Fig. 5B and F), vitamin E preloading): did not protect; protective effect on infectivity in atmospheric O2 (HSV-1 [1]): no protective effects

Question: With bovine serum albumin [BSA] as the molecule, how does the “drop of viral titers” value (HSV-1 [1]) read?
Answer: The value was “about 30%”.

Question: What about the “protection of virion infectivity” value (HSV-1 [1]; after 3 h of incubation in atmospheric O2) of the same molecule?
Answer: Its value is “about 30%”.
